Data from patent US7371207B2 (Wyeth, priority 2002, dated 2008).
Entries after “also recorded” stand apart in the source; their conditions may differ.

Assays:
[1] = test system: gene expression in the kidney; assay: Real-time PCR of kidney gene expression in ovariectomized WT mice
Source text: FIGS. 5A-5B show a series of graphs showing expression levels for various genes. […] (B) Uterine wet weights (mg) and gene expression values (mean±SEM).
FIGS. 6A-6D show a series of bar graphs depicting relative expression levels for various genes.
(§1) One week later, the animals were ovariectomized.

[2] = test system: gene expression in the kidney of mice expressing ΔAF1-ERα; assay: Real-time PCR of kidney gene expression in ERαERβKO or ERαKO mice expressing ΔAF1-ERα
Method: Kidney gene expression values were determined by real-time PCR for each individual animal and normalized for GAPDH expression. The mean expression level in vehicle-treated WT mice was defined as 1 for each gene. *p<0.01 for comparison to vehicle treated animals.
One week later, the animals were ovariectomized. Commencing the day after ovariectomy, each animal received a daily subcutaneous treatment with vehicle (50% DMSO, 50% phosphate buffered saline) or vehicle containing treatments for six weeks. Each group consisted of six or seven animals. Approximately 2 hours following the final treatment, the animals were euthanized with selected tissues frozen in liquid nitrogen for RNA analysis or on dry ice for histology.

[3] = test system: gene expression in the kidney; assay: In situ hybridization of kidney, ovariectomized mice; format: in vivo, mouse; conditions: 20 μg/kg/day E2 six weeks, FIG. 3
Source text: No signal was detected with the corresponding sense probes.
Generally, in situ hybridization comprises the following major steps: (1) fixation of tissue or biological structure to be analyzed; (2) prehybridization treatment of the biological structure to increase accessibility of target nucleic acid, and to reduce nonspecific binding; (3) hybridization of the mixture of nucleic acids to the nucleic acid in the biological structure or tissue; (4) post-hybridization washes to remove nucleic acid fragments not bound in the hybridization, and (5) detection of the hybridized nucleic acid fragments. The probes used in such applications are typically labeled, for example, with radioisotopes or fluorescent reporters. Preferred probes are sufficiently long, for example, from about 50, 100, or 200 nucleotides to about 1000 or more nucleotides, to enable specific hybridization with the target nucleic acid(s) under stringent conditions.
as §1

[4] = 10 μg/kg/day E2 or 5 mg/kg/day tamoxifen, 6 weeks, FIG. 8

## C[C@]12CC[C@@H]3c4ccc(O)cc4CC[C@H]3[C@@H]1CC[C@@H]2O [E2, 17β-estradiol]
[1]; [4]
  BCAT1 expression in kidney, WT mice: induced
  CYP7B1 expression in kidney, WT mice: induced
  TF expression in kidney, WT mice: induced
[1]; ovariectomized WT mice, various doses s.c. six weeks, FIG. 5
  ED50 for stimulation of CYP7B1, TF, STAT5A, and BCAT1 in the kidney: about 3 μg/kg/day
[2]; 10 μg/kg/day E2, 6 weeks, FIG. 8
  CYP7B1 expression in kidney, mice expressing ΔAF1-ERα (ERαERβKO or ERαKO): increased CYP7B1 expression
[2]; [4]
  BCAT1 expression in kidney, ERαERβKO mice: stimulated BCAT1 expression
  TF expression in kidney, ERαERβKO mice (express only ΔAF1-ERα): Neither compound could induce TF expression
[2]; WT versus ΔAF1-ERα mice, E2 versus tamoxifen
  mechanism of induction of BCAT1 in kidney (ERα AF1 or AF2): either AF1 or AF2 mechanisms; also recorded: both AF1 and AF2 mechanisms
[3]
  localization of induction of CYP7B1, TF, STAT5A and GADD45G in mouse kidney: induction of gene expression occurred in the juxtamedullary region of the kidney
